Columns and labels:
[1] = electronic spectra in various solvents; assay type: physicochemical
Method: Bis(tri-n-propylsiloxy)silicon-tetra(ndodecylthio)n-aphthalocyanine [illustrative compound (100)] was dissolved in various solvents and its electronic spectra were measured. The electronic spectra in chloroform, tetrahydrofuran, acetone, toluene and hexane are shown in […], FIG. 35, FIG. 36, FIG. 37 and FIG. 38, respectively.
Vanadyl-tetra(t-butyl)-naphthalocyanine synthesized according to the method described in Zhurnal Obshchei Khimii, vol. 42, p. 696 (1972) was dissolved in each of chloroform and benzene and its electronic spectra were measured. The electronic spectra in chloroform and benzene are shown in FIG. 41 and FIG. 42, respectively.

[2] = transmission and 5° regular-reflection spectra of spin-coated organic film on glass plate; assay type: physicochemical; settings: 2 parts in 98 parts 1,1,2-trichloroethane
Method: A solution composed of 2 parts by weight of bis(tri-n-propylsiloxy)silicon-tetra(n-dodecylthio)naphthalocyanine [illustrative compound (100)] and 98 parts by weight of 1,1,2-trichloroethane was coated on a glass plate by a spin coating method and dried at about 80° C. for about 15 minutes to form an organic film. Transmission spectrum and 5° regular-reflection spectrum of the organic film of the illustrative compound are shown in FIG. 39 and FIG. 40, respectively.
An organic film of the same vanadyl-tetra(t-butyl) naphthalocyanine as used in Comparative Example 1 was formed on a glass plate in the same manner as in Test Example 2, and transmission spectrum (FIG. 43) and 5° regular-reflection spectrum (FIG. 44) of the organic film were measured.
A solution composed of 1 part by weight of each of the naphthalocyanine derivatives (127), (99) and (102) exemplified and 99 parts by weight of tetrahydrofuran was coated on a glass plate by a spin coating method and dried at about 80° C. for about 15 minutes to form an organic film. Transmission spectra and 5° regular-reflection spectra of the thus formed organic films of the naphthalocyanine derivatives are summarized in FIG. 45 and FIG. 46, respectively.

reflectivity in the diode laser region (780 to 830 nm) [2]: ≤ 20%
Substance: Vanadyl-tetra(t-butyl)-naphthalocyanine
change of absorption with concentration ([1]; electronic spectra in chloroform and benzene): The higher the concentration, the weaker the absorption near 800 nm and the stronger the absorption at 720 to 730 nm
dependence of absorption waveform on kind of solvent and concentration ([1]; electronic spectra in solution): varied depending on the kind of solvent and the conventration of solution
light-absorbing ability in the diode laser region (780 to 830 nm) [2]: did not have very high light-absorbing ability
